Source: patent US11952384B2, “Anti-tumor compound and preparation method and use thereof” (DUALITY BIOLOGICS (SUZHOU) CO., LTD., priority 2020, dated 2024)
Where two headings read alike, the source gives them in different places.

Assays:
JIMT-1 cells = assay: Inhibition of in vitro proliferation of tumor cells by compounds (CTG, 6 days); assay type: cell-based
Protocol: (§1) To test the inhibitory activity of the pharmaceutical compounds on the in vitro proliferation of NCI-N87, JIMT-1 and MBA-MB-231 tumor cells. The cells were treated with the compounds at different concentrations in vitro, and after 6 days of culture, the proliferation of cells was detected using the CTG (CellTiter-Glo® Luminescent Cell Viability Assay, Promega, Cat. No. G7558) reagent, and the in vitro activity of the compounds was evaluated according to the IC50 value.
(§2) In the following, the test for the inhibition of the in vitro proliferation of NCI-N87 cells was taken as an example to illustrate the method of the present application for testing the inhibitory activity of the compounds of the present application on the in vitro proliferation of tumor cells. The method was also applicable to, but not limited to, the test for the inhibitory activity on the in vitro proliferation of other tumor cells. • 1. Culturing of cells: NCI-N87 cells were cultured in RPMI-1640 medium containing 10% FBS. • 2. Preparation of cells: NCI-N87 cells in logarithmic phase were taken, washed with PBS once, and digested with 2-3 mL of trypsin for 2-3 min. After the cells were digested completely, 10-15 mL of cell culture was added to elute the digested cells. The eluate was centrifuged at 1000 rpm for 5 min, and the supernatant was discarded. The resulting cells were resuspended in 10-20 mL of cell culture to obtain a single cell suspension. • 3. Cell plating: the NCI-N87 single cell suspension was mixed well and adjusted to a viable cell density of 6×10^4 cells/mL with cell culture. The cell suspension with the adjusted density was mixed well and added to a 96-well cell culture plate at 50 μL/well. The culture plate was incubated in an incubator for 18 h (37° C., 5% CO2). • 4. Preparation of compounds: the compounds were dissolved in DMSO to obtain stock solutions at an initial concentration of 10 mM. There were 8 concentrations in total for the small molecule compounds: 300 nM, 100 nM, 30 nM, 10 nM, 3 nM, 1 nM, 0.3 nM, and 0.1 nM. • 5. Sample adding: the prepared samples to be detected at different concentrations were added to the culture plate, and two duplicate wells were set for each sample. The culture plate was incubated in an incubator for 6 days (37° C., 5% CO2). • 6. Color developing: the 96-well cell culture plate was taken out, added with the CTG reagent at 50 μL/well, and incubated at room temperature for 10 min. • 7. Plate reading: the 96-well cell culture plate was taken out, placed in a microplate reader, and measured for the chemiluminescence using the microplate reader. Data Analysis
(§3) Data were processed and analyzed using Microsoft Excel and Graphpad Prism 5.
(§4) To test the inhibitory activity of the pharmaceutical compounds on the in vitro proliferation of NCI-N87, JIMT-1 and MBA-MB-231 tumor cells. The cells were treated with compounds at different concentrations in vitro, and after 6 days of culture, the proliferation of cells was detected using CTG (CellTiter-Glo® Luminescent Cell Viability Assay, Promega, Cat. No. G7558) reagents, and the in vitro activity of the compounds was evaluated according to the IC50 value. • 1. Culturing of cells: NCI-N87/JIMT-1/MBA-MB-231 cells were cultured in RPMI-1640 medium containing 10% FBS. • 2. Preparation of cells: NCI-N87/JIMT-1/MBA-MB-231 cells in logarithmic phase were taken, washed with PBS once, and digested with 2-3 mL of trypsin for 2-3 min. After the cells were digested completely, 10-15 mL of cell culture was added to elute the digested cells. The eluate was centrifuged at 1000 rpm for 5 min, and the supernatant was discarded. The resulting cells were resuspended in 10-20 mL of cell culture to obtain a single cell suspension. • 3. Cell plating: the NCI-N87/JIMT-1/MBA-MB-231 single cell suspension was mixed well and adjusted to a viable cell density of 6×10^4 cells/mL with cell culture. […]

BCRP [1] = molecular target: T1, BCRP (Homo sapiens, UniProt Q9UNQ0)
T1 sequence (Q9UNQ0 1-655): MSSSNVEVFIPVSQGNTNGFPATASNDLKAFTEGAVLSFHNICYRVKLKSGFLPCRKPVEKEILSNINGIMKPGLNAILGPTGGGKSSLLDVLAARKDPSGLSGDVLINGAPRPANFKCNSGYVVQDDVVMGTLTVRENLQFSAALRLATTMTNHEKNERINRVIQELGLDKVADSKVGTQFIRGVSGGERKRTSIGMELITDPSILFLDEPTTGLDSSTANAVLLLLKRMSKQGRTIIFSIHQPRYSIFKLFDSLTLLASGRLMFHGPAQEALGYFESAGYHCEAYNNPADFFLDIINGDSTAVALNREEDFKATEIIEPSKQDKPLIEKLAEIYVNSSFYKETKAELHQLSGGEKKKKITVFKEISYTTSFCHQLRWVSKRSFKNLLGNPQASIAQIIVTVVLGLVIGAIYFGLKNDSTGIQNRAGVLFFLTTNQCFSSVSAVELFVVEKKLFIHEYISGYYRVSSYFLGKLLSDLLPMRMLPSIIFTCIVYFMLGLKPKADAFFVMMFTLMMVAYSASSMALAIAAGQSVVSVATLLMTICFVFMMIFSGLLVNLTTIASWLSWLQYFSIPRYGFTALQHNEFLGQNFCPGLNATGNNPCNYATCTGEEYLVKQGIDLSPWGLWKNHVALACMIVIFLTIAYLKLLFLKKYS

BCRP [2] = molecular target: T1, BCRP; assay: in vitro; conditions: for efflux ratio at 2 h: Caco-2; for Papp A→B at 2 h: Caco-2, Papp (A-B) (10^−6, cm/s); for Papp B→A at 2 h: Caco-2, Papp (B-A) (10^−6, cm/s)
BCRP [3] = molecular target: T1, BCRP; assay: Study on transporter substrates in Caco-2 cell model; conditions: human, Caco-2
NCI-N87 cells = assay: Inhibition of in vitro proliferation of tumor cells by compounds (CTG, 6 days); assay type: cell-based; conditions: Homo sapiens, NCI-N87, 144 h, read-out: NCI-N87 IC50 (nM)
Protocol: as §1, §2, §3, §4

[4] = Homo sapiens, JIMT-1, 144 h, read-out: JIMT-1 IC50 (nM)

CC[C@@]1(O)C(=O)OCc2c1cc1n(c2=O)Cc2c-1nc1cc(F)c(C)c3c1c2[C@@H](NC(=O)C1CCCC(O)C1)CC3 (stereo partly drawn) [P-II-22, N-((1S,9S)-9-ethyl-5-fluoro-9-hydroxy-4-methyl-10,13-dioxo-2,3,9,10,13,15-hexahydro-1H,12H-benzo[de]pyrano[3′,4′:6,7]indolizino[1,2-b]quinolin-1-yl)-3-hydroxycyclohexane-1-carboxamide]
IC50 (JIMT-1 cells; [4]): 3.2 nM

CC(C)NCC(O)COc1cccc2ccccc12 (centres unmarked) [Propranolol]
BCRP substrate (BCRP [1]; Caco-2): No
efflux ratio at 2 h (BCRP [2]): 1.09
Papp A→B at 2 h (BCRP [2]): 17.3 ×10⁻⁶ cm/s
Papp B→A at 2 h (BCRP [2]): 18.9 ×10⁻⁶ cm/s
recovery at 2 h (BCRP [2]; Caco-2, Recovery rate (%) AP-BL): 62.2%
recovery at 2 h (BCRP [2]; Caco-2, Recovery rate (%) BL-AP): 82.4%

CC(C)c1nc(N(C)S(C)(=O)=O)nc(-c2ccc(F)cc2)c1/C=C/[C@@H](O)C[C@@H](O)CC(=O)O [Rosuvastatin, rosuvastatin, reference compound]
BCRP substrate (BCRP [1]; Caco-2): Yes
Papp (A-B) (10^−6, cm/s) (BCRP [1]; Caco-2): 0.45 10^−6, cm/s
Papp (B-A) (10^−6, cm/s) (BCRP [1]; Caco-2): 3.15 10^−6, cm/s
Efflux ratio (BCRP [1]; human, Caco-2, 2 h): 6.96
efflux ratio at 2 h (BCRP [2]): 81.2
Papp A→B at 2 h (BCRP [2]): 0.12 ×10⁻⁶ cm/s
Papp B→A at 2 h (BCRP [2]): 9.52 ×10⁻⁶ cm/s
recovery at 2 h (BCRP [3]; Caco-2, Recovery rate (%) AP-BL, KO143 −): 98.5%
recovery at 2 h (BCRP [3]; Caco-2, Recovery rate (%) BL-AP, KO143 −): 96.8%
recovery at 2 h (BCRP [3]; Caco-2, with KO143 (concentration not stated), Recovery rate (%) AP-BL, KO143 +): 95.8%
recovery at 2 h (BCRP [3]; Caco-2, with KO143 (concentration not stated), Recovery rate (%) BL-AP, KO143 +): 97.1%

CC[C@@]1(O)C(=O)OCc2c1cc1n(c2=O)Cc2c-1nc1cc(F)c(C)c3c1c2[C@@H](NC(=O)CCS)CC3 [P-III-2, N-((1S,9S)-9-ethyl-5-fluoro-9-hydroxy-4-methyl-10,13-dioxo-2,3,9,10,13,15-hexahydro-1H,12H-benzo[de]pyrano[3′,4′:6,7]indolizino[1,2-b]quinolin-1-yl)-3-mercaptopropanamide]
IC50 (JIMT-1 cells; [4]): 108 nM
IC50 (NCI-N87 cells): 108 nM

CC[C@@]1(O)C(=O)OCc2c1cc1n(c2=O)Cc2c-1nc1cc(F)c(C)c3c1c2[C@@H](NC(=O)CC(=O)CO)CC3 [P-III-22, N-((1S,9S)-9-ethyl-5-fluoro-9-hydroxy-4-methyl-10,13-dioxo-2,3,9,10,13,15-hexahydro-1H,12H-benzo[de]pyrano[3′,4′:6,7]indolizino[1,2-b]quinolin-1-yl)-4-hydroxy-3-oxobutanamide]
IC50 (JIMT-1 cells; [4]): 12.5 nM

CCCC(O)CC(=O)N[C@H]1CCc2c(C)c(F)cc3nc4c(c1c23)Cn1c-4cc2c(c1=O)COC(=O)[C@]2(O)CC (stereo partly drawn) [P-III-27, N-((1S,9S)-9-ethyl-5-fluoro-9-hydroxy-4-methyl-10,13-dioxo-2,3,9,10,13,15-hexahydro-1H,12H-benzo[de]pyrano[3′,4′:6,7]indolizino[1,2-b]quinolin-1-yl)-3-hydroxyhexanamide]
IC50 (NCI-N87 cells): 3 nM

CC[C@@]1(O)C(=O)OCc2c1cc1n(c2=O)Cc2c-1nc1cc(F)c(C)c3c1c2[C@@H](NC(=O)CCN)CC3 [compound 2, N-((1S,9S)-9-ethyl-5-fluoro-9-hydroxy-4-methyl-10,13-dioxo-2,3,9,10,13,15-hexahydro-1H,12H-benzo[de]pyrano[3′,4′:6,7]indolino[1,2-b]quinolin-1-yl)-3-aminopropionamide, reference compound]
IC50 (JIMT-1 cells; Table 3, Test Example 2.3, small molecule fragments, 6 days of culture, CTG, read-out: JIMT-1 IC50): 36.2 nM

CC[C@@]1(O)C(=O)OCc2c1cc1n(c2=O)Cc2c-1nc1cc(F)c(C)c3c1c2[C@@H](NC(=O)C(C)C(C)O)CC3 (stereo partly drawn) [compound 4, N-((1S,9S)-9-ethyl-5-fluoro-9-hydroxy-4-methyl-10,13-dioxo-2,3,9,10,13,15-hexahydro-1H,12H-benzo[de]pyrano[3′,4′:6,7]indolizino[1,2-b]quinolin-1-yl)-3-hydroxy-2-methylbutanamide, reference compound]
IC50 (JIMT-1 cells; [4]): 32.3 nM

CC[C@@]1(O)C(=O)OCc2c1cc1n(c2=O)Cc2c-1nc1cc(F)c(C)c3c1c2[C@@H](NC(=O)CCO)CC3 [compound 3, N-((1S,9S)-9-ethyl-5-fluoro-9-hydroxy-4-methyl-10,13-dioxo-2,3,9,10,13,15-hexahydro-1H,12H-benzo[de]pyrano[3′,4′:6,7]indolizino[1,2-b]quinolin-1-yl)-3-hydroxypropanamide, reference compound]
IC50 (JIMT-1 cells; Homo sapiens, JIMT-1, 144 h, Table 3, Test Example 2.3, small molecule fragments, 6 days of culture, CTG, read-out: JIMT-1 IC50): 81.2 nM

CC[C@@]1(O)C(=O)OCc2c1cc1n(c2=O)Cc2c-1nc1cc(F)c(C)c3c1c2[C@@H](NC(=O)C1(O)CCC1)CC3 [compound 1, N-((1S,9S)-9-ethyl-5-fluoro-9-hydroxy-4-methyl-10,13-dioxo-2,3,9,10,13,15-hexahydro-1H,12H-benzo[de]pyrano[3′,4′:6,7]indolizino[1,2-b]quinolin-1-yl)-1-hydroxycyclobutane-1-carboxamide, reference compound]
IC50 (JIMT-1 cells; Homo sapiens, JIMT-1, 144 h, Table 2 (untitled), Test Example 2.2, small molecule fragments, 6 days of culture, CTG, read-out: JIMT-1 IC50): 23.1 nM
